As usually defined, the IC50 is the point on the concentration scale where inhibition reaches its midpoint. For orientation: EC50 means the concentration giving half of the maximal effect. The AC50 is the midpoint of the concentration-response curve, whichever way the signal moves. What is called CC50 is the concentration giving 50% cytotoxicity.

Active and inactive are the calls of the source.

We go through seven molecules from ChEMBL document CHEMBL1201862, “PubChem BioAssay data set” (2004).

Data set [1] has as its system HEK293. Description: cells. The following applies: Homo sapiens.
Another data set addresses Tumor necrosis factor (Homo sapiens, UniProt P01375). As to the kind of experiment: analog potency on TNFa NF-kB signaling – cell-based, revised, SAR follow-up (AID 2337). It is filed as functional.
Data set [2] has as its target T1, Nucleotide-binding oligomerization domain-containing protein 1 (Homo sapiens, UniProt Q9Y239).
T1 sequence (Q9Y239 whole entry): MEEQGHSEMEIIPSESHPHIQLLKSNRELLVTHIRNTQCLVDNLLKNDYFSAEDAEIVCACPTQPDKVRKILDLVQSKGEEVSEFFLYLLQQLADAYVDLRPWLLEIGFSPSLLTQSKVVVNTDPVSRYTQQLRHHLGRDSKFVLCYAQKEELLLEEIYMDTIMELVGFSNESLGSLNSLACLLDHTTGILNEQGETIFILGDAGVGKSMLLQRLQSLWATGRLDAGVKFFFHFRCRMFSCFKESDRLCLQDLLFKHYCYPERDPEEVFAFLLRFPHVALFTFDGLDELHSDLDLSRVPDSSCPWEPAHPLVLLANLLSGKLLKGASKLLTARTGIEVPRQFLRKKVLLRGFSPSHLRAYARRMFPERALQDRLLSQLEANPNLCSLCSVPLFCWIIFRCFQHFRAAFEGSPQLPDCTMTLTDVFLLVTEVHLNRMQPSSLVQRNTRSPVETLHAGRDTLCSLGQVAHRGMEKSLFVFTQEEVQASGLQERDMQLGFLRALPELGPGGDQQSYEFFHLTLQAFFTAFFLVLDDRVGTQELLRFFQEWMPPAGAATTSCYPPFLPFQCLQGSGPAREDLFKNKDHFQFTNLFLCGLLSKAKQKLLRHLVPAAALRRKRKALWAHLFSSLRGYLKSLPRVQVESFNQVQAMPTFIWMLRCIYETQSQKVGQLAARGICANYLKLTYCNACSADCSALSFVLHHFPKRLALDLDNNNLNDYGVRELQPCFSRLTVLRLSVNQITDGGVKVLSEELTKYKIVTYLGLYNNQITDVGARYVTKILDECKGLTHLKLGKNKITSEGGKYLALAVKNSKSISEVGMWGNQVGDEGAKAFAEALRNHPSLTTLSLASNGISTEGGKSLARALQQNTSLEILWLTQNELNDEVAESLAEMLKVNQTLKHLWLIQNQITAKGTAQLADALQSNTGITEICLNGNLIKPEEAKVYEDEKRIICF
As to the kind of experiment: blockers of NOD1 pathway activity – revised, SAR follow-up (AID 2333). It is filed as functional.

Data set [3] has as its system HEK293. Description: NOD2 signaling inhibitors in MDP-stimulated cells, cell-based, uHTS, luminescence (AID 2001). It is filed as functional. The following applies: Homo sapiens.
The subject of data set [4] is HEK293. Description: cells. It is filed as functional, cell-based. The note with it: Homo sapiens.
In data set [5] the test system is HEK293. As to the kind of experiment: inhibition of NOD1-driven NF-kB reporter – cell-based, luminescence, uHTS, primary screen (AID 1578). It is filed as functional. The following applies: Homo sapiens.
The subject of data set [6] is HEK293. As to the kind of experiment: cells. It is filed as functional, cell-based. The note with it: Homo sapiens. This is another data set of the same source.
The nature of data set [7]: Trypanosoma cruzi growth suppression in host cells – NIH3T3 host cells, beta-gal luminescence, confirmation (AID 2044).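 Also: intracellular parasites grown in NIH/3T3 mouse fibroblasts as host cells; luminescent beta-galactosidase reporter signal from transgenic T. cruzi replicating inside host cells; inhibitors lower the luminescence signal.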 It is filed as functional, cell-based.
A short description of data set [8]: NIH3T3 cell viability loss – ATP luminescence, mouse fibroblasts, counter-screen, dose response (AID 2010).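 Also: cells exposed to compound for about 90 hours before reading.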 The class given is functional, cell-based. On the technique in general: The purpose of a counterscreen is to sort out artefacts and off-target activity.
Data set [9] concerns the target T2, COUP transcription factor 2 (Homo sapiens, UniProt P24468).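 Also: HEK293 cells transiently cotransfected with COUP-TFII expression vector and reporter; luciferase reporter luminescence driven by COUP-TFII from the pX2-168 reporter plasmid.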
T2 sequence (P24468 whole entry): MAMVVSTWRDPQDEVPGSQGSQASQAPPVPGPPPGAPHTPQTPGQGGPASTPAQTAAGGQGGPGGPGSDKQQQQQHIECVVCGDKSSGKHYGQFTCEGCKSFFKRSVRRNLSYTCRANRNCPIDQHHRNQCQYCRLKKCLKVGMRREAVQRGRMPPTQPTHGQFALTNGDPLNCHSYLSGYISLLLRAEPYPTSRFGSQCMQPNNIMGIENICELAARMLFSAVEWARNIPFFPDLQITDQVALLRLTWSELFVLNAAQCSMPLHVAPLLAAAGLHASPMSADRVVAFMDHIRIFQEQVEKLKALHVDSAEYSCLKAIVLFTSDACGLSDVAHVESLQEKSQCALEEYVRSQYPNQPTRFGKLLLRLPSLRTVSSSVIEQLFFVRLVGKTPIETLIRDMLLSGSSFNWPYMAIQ
Description: Luminescence-based cell-based high throughput dose response assay to identify inhibitors of COUP-TFII (NR2F2). It is filed as functional.

The target of data set [10] is T3, Short transient receptor potential channel 4 (Mus musculus, UniProt Q9QUQ5).
T3 sequence (Q9QUQ5 whole entry): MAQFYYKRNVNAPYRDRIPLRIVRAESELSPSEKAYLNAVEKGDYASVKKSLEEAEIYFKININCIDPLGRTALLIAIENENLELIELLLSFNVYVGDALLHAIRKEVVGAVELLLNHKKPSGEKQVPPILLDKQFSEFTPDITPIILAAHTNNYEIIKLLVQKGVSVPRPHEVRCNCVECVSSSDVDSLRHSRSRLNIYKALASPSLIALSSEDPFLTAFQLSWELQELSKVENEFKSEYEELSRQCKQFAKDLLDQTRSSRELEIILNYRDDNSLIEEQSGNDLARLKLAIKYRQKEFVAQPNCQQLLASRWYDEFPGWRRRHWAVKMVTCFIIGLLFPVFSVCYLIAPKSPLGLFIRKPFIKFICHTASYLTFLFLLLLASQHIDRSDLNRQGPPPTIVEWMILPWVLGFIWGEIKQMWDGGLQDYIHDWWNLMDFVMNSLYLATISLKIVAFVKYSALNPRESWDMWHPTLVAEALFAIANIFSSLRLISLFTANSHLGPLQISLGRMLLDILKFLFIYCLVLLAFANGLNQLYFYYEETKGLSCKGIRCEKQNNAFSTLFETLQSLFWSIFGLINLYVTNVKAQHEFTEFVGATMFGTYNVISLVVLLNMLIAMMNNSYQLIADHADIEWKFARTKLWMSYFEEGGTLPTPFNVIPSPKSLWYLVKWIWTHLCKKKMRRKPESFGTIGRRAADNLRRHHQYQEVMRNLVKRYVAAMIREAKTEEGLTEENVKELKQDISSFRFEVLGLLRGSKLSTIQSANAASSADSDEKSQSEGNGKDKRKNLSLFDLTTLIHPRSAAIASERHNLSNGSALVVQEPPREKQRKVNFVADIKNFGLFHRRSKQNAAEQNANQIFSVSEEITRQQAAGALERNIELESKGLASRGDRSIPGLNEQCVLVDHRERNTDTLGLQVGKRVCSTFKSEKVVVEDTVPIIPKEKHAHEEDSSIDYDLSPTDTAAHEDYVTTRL
As to the kind of experiment: block of DAMGO-driven TRPC4 calcium entry – cell-based, HEK293 TRPC4/mu-opioid, Fluo-4 calcium, dose response (AID 434942).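 Also: potency of inhibitors blocking the TRPC4 calcium response.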 It is filed as functional.

For the next data set, the target named is Cytochrome P450 2D6 (Homo sapiens, UniProt P10635).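 Also: CYP2D6 member of a cytochrome P450 panel assay.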
In data set [11] the test system is Vero. As to the kind of experiment: cells. It is filed as functional, cell-based. The following applies: Chlorocebus sabaeus.
Data set [12] deals with Vero. As to the kind of experiment: cells. The following applies: Chlorocebus sabaeus. It is filed as functional.
The next data set deals with Cytochrome P450 2C9 (Homo sapiens, UniProt P11712).
The target of a further data set is T4, Cytochrome P450 1A2 (Homo sapiens, UniProt P05177).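 Also: PubChem cytochrome P450 panel assay, CYP1A2 panel member.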
T4 sequence (P05177 whole entry): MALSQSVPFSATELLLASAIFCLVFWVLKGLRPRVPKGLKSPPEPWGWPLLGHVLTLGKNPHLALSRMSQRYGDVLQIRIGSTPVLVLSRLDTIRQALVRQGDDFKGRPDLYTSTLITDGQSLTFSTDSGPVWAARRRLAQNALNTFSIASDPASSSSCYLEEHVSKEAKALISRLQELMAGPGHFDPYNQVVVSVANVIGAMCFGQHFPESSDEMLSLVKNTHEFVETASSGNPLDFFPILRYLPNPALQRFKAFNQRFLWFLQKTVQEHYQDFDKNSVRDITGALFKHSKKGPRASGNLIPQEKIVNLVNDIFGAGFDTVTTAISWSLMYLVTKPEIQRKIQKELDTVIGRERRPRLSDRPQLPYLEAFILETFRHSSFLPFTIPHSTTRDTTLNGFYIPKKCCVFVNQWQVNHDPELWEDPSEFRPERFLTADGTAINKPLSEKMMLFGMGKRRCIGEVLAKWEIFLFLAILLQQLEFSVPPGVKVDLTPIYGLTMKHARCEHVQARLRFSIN

A short description of data set [13]: Counterscreen for activators of the function of SWI/SNF related, matrix associated, actin dependent regulator of chromatin, subfamily a, member 2 (SMARCA2, BRM): Luminescence-based cell-based high throughput dose response assay to identify non-selective compounds using the VP16 reporter assay. It is filed as functional.
The next data set has as its target Trypsin (Sus scrofa, UniProt P00761). Description: trypsin protease activity blockade – biochemical, quenched peptide fluorescence, cherry-pick, selectivity assay for Rce1 protease inhibitor project, dose response (AID 488789).
In another data set the target is T5, CAAX prenyl protease 2 (Homo sapiens, UniProt Q9Y256).
T5 sequence (Q9Y256 whole entry): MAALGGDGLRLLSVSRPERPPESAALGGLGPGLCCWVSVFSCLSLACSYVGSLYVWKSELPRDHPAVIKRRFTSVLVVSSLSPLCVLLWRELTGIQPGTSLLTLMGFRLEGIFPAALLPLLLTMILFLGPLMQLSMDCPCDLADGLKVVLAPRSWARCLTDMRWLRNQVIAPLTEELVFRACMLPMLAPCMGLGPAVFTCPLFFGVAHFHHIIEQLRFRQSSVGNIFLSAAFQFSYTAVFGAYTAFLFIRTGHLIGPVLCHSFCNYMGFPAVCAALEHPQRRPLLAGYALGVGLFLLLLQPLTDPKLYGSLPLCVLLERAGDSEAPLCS
As to the kind of experiment: inhibition of Ras-converting CAAX protease Rce1 – biochemical, yeast membranes, quenched-peptide fluorescence, cherry-pick, dose response (AID 588849).

Data set [14] can be described thus: viability of uninfected HEp-2 cells – cell-based, HTS, cytotoxicity control for RSV inhibitor project, dose response (AID 2410). It is filed as functional. The following applies: human respiratory syncytial virus.
For the next data set, the target named is T6, CAAX prenyl protease 1 (Saccharomyces cerevisiae S288c, UniProt P47154).
T6 sequence (P47154 whole entry): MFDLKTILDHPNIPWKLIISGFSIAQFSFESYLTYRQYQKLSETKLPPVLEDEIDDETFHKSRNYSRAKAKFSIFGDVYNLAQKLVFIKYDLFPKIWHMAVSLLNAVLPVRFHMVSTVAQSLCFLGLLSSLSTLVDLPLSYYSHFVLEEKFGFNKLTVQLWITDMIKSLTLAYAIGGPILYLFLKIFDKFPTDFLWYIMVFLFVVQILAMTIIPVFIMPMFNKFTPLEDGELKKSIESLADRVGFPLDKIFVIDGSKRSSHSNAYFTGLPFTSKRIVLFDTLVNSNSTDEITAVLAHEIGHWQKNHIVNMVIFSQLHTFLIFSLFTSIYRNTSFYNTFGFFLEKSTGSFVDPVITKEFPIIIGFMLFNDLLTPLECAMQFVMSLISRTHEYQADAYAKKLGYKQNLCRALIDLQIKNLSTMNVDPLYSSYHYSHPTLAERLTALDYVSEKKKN
Description: yeast CAAX protease Ste24 inhibition – biochemical, S. cerevisiae, plate reader, cherry-pick, dose response (AID 488815).

For data set [15], the target named is SWI/SNF-related matrix-associated actin-dependent regulator of chromatin subfamily A member 2 (Homo sapiens, UniProt P51531). As to the kind of experiment: Luminescence-based cell-based high throughput dose response assay to identify activators of the function of SWI/SNF related, matrix associated, actin dependent regulator of chromatin, subfamily a, member 2 (SMARCA2, BRM). It is filed as functional.
Sequence of SWI/SNF-related matrix-associated actin-dependent regulator of chromatin subfamily A member 2 (P51531 whole entry): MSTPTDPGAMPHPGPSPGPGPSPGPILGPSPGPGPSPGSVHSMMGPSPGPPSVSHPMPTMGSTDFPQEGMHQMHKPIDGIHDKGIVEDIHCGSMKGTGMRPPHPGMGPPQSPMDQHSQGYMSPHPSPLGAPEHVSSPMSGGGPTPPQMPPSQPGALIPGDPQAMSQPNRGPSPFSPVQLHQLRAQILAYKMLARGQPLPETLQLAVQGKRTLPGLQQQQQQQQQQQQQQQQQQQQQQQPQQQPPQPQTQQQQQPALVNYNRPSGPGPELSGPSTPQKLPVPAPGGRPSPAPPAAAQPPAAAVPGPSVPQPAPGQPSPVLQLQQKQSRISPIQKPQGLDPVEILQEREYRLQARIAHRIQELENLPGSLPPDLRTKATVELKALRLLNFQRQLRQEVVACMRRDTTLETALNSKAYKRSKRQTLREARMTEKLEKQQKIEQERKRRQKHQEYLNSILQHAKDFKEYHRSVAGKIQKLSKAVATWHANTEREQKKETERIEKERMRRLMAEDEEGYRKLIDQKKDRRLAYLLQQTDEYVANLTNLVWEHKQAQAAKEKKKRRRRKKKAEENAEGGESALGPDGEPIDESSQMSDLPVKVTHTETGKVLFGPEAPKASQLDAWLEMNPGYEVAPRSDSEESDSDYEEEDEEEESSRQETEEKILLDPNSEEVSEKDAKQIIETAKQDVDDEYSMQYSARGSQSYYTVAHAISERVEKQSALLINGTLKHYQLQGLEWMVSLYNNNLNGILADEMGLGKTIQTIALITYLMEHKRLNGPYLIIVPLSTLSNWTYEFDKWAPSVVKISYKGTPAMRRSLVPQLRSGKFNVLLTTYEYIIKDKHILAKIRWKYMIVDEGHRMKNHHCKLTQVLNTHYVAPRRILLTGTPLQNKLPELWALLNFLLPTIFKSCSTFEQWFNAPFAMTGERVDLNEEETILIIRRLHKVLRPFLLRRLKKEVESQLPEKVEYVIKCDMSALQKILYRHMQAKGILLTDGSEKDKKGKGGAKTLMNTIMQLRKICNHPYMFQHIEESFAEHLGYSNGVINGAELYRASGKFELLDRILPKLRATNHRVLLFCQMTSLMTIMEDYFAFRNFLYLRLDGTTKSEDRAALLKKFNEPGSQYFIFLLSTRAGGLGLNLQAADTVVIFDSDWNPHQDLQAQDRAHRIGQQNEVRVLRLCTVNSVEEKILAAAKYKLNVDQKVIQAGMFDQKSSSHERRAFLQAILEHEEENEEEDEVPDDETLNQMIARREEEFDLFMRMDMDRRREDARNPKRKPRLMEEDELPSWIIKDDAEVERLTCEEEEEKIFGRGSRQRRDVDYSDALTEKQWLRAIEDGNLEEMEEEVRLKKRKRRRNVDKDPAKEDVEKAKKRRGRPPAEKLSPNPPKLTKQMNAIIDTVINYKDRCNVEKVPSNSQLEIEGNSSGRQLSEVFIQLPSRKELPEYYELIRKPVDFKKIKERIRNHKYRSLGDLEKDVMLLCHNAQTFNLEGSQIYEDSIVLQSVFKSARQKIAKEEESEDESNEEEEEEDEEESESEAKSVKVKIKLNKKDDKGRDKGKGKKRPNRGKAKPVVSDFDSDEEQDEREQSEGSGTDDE

Sequence of Cytochrome P450 2D6 (P10635 whole entry): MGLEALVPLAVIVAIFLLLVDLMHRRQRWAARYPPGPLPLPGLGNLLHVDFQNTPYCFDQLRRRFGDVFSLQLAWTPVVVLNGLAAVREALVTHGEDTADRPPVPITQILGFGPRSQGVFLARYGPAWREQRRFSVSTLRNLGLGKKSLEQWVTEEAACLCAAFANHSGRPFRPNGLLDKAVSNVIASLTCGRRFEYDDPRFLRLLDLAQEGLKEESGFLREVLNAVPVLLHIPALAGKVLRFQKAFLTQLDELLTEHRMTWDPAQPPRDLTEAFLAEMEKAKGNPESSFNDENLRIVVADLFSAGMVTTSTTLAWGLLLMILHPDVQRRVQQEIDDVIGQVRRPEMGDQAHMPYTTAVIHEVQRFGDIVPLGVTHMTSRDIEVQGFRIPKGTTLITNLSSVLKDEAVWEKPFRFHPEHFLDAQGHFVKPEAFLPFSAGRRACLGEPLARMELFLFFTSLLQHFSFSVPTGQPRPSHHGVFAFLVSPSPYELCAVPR
Sequence of Trypsin (P00761 whole entry): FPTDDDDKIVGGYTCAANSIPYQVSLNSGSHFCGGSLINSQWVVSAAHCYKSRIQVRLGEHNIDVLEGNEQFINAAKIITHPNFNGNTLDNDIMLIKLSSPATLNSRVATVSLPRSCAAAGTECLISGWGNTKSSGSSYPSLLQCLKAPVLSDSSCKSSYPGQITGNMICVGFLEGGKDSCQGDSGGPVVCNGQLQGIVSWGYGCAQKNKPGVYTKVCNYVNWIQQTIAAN
Sequence of Cytochrome P450 2C9 (P11712 whole entry): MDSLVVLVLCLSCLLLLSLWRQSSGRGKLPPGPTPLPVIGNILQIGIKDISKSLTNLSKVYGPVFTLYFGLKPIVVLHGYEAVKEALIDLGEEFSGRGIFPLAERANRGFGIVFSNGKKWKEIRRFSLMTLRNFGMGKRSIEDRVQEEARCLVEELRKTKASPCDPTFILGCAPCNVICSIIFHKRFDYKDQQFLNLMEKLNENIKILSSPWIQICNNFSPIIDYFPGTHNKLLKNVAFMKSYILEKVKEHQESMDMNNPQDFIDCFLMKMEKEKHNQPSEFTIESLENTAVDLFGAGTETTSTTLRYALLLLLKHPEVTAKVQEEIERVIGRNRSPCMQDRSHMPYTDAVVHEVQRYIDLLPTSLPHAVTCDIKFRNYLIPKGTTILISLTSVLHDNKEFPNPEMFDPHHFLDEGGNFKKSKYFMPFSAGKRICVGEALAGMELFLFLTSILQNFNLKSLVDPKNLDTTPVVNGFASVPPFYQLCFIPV
Sequence of Tumor necrosis factor (P01375 whole entry, the tested form may be a part): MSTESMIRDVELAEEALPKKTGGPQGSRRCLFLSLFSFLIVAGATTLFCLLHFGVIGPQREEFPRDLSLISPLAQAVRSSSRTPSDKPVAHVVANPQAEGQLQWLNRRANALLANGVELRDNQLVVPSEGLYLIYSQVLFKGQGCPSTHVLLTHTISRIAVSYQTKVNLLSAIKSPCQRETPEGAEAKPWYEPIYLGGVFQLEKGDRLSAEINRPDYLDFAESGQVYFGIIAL

Consider `Cc1oc(-c2cccc3ccccc23)nc1CN1CCN(c2ncnc3ccccc23)CC1`, for which the IC50 was > 20 µM (inactive) in the data set with HEK293 [1]; > 20 µM (inactive) at Tumor necrosis factor; > 20 µM (inactive) in data set [2]; 3.28 µM (active) with HEK293 [3]; 6.63 µM (active) in the data set with HEK293 [4]; 4.08 µM (active) in the data set on HEK293 [6]. In the data set on HEK293 [5], the EC50 is 7.79 µM (active).
For the molecule `N=c1c2c(n(Cc3ccc(Cl)cc3)c3c1CCC3)CCC2`, the EC50 in [7] is 0.443 µM (active); in data set [8], > 60 µM (not active); in [10], 7.5 µM (active); in the data set on HEK293 [5], 10.2 µM (active). Also, the IC50 was 9.25 µM (active) in data set [9], 15.4 µM (inactive) in the data set with HEK293 [3], > 20 µM (inactive) with HEK293 [4] and 11.8 µM (active) in the data set with HEK293 [6].
For `COC(=O)C/C=C\[C@@H](C)[C@@H](/C=N\OC[C@@H](O)COCc1ccco1)OC`, the AC50 entry on Cytochrome P450 2D6 is “inconclusive”.
`COc1cc(C(=O)/C=C/c2cccnc2)ccc1O`: the IC50 in the data set with Vero [11] is > 25 µM (active). Also, the CC50 in the data set with Vero [12] is 21.2 µM (active).
On to `COc1ccc(-n2nnnc2/C=C\Nc2ccccc2C(=O)c2ccccc2)cc1`, for which the concentration at half-maximal activity (AC50) result on Cytochrome P450 2D6 was “inconclusive”; on Cytochrome P450 2C9, “inconclusive”; on Cytochrome P450 1A2 it was 22.4 µM (inconclusive).
In the case of `CC[C@H]1CN(C)[C@H]2Cc3c([nH]c4ccccc34)C(=O)C[C@H]1[C@H]2C(=O)OC`, the AC50 entry at Cytochrome P450 2D6 is recorded as “inconclusive”.
For `NS(=O)(=O)c1ccc(N/N=C/c2cn(-c3ccccc3)nc2-c2cccs2)cc1`, the EC50 in data set [13] and in data set [15] was > 91.2 µM (inactive) in each case. In addition, the AC50 is 7.03 µM (active) on Trypsin, 16.7 µM (active) at CAAX prenyl protease 2 and 7.44 µM (active) at CAAX prenyl protease 1. Besides, the CC50 in [14] was 12.2 µM (active); with Vero [12], 11.3 µM (active).
